The assay concerns the target T1, FAAH (Rattus norvegicus, UniProt P97612).
T1 construct: Preparation of Rat Brain Membranes Preparations (FAAH Enzyme Solution); from tissue; host or cells: rat cerebrum (brain membrane preparation)
T1 sequence (P97612 1-579): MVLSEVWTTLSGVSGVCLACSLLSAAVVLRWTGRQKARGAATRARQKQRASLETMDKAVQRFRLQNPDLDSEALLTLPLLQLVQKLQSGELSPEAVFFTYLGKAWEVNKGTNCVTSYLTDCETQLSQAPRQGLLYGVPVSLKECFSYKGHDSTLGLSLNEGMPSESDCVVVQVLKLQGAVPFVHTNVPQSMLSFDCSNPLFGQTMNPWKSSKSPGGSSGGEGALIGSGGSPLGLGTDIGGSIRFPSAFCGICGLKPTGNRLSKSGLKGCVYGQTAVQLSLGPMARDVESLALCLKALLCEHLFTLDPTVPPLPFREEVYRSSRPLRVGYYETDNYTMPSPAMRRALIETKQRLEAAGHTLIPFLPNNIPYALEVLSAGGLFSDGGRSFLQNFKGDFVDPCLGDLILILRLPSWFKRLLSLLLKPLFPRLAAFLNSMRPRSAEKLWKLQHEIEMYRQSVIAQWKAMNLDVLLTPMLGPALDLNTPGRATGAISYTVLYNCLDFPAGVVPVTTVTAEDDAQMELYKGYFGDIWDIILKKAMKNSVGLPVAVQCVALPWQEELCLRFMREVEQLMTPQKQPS
Nature of the assay: Determination of FAAH inhibitory activity in rat (rat brain membrane preparations, [3H]-anandamide hydrolysis). The settings on record: for inhibition at 0.1 µM: read-out: FAAH Inhibition, Inhibition Rate at 100 nM; for IC50: test substance 0.1 nM to 1 μM. The class given is biochemical. In outline:
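Rat cerebrum membranes (100 μg/mL protein) preincubated 10 min at 37 °C with compound (1% DMSO) in pH 7.6 Tris buffer with 1.5% BSA. Substrate 2 nM [3H]-anandamide plus 2 μM anandamide added for 10 min at 37 °C. [3H]-ethanolamine in the aqueous phase after chloroform/methanol extraction was scintillation counted; IC50 over 0.1 nM–1 μM.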

The mark [1] stands for this setting: rat brain membrane preparations, 100 nM test substance.
Where [2] appears, read: rat brain membrane preparations, read-out: FAAH Inhibition IC50.

Where two headings read alike, the source gives them in different places.

As for `Cn1c(=O)n(C(=O)N2CCC2)c2nc(-c3ccc(F)cc3)ncc21` [compound 354], the inhibition at 0.1 µM under setting [1] is 79%. The IC50 under setting [2] was 52 nM.

Turning to `COc1cccc(-c2ncc3c(n2)n(C(=O)N2CCC2)c(=O)n3C)c1` [compound 355], under setting [1], the inhibition at 0.1 µM was determined as 76%. Further, the IC50 under setting [2] turned out to be 86 nM.

As for `Cn1c(=O)n(C(=O)N2CCC2)c2nc(-c3cccc(C(F)(F)F)c3)ncc21` [compound 357], under setting [1], the inhibition at 0.1 µM is 107%. The IC50 under setting [2] stood at 11 nM.

For the molecule `Cn1c(=O)n(C(=O)N2CCC2)c2nc(-c3ccc(OCC(F)F)cc3)ncc21` [compound 368], the inhibition at 0.1 µM under setting [1] was found to be 99%. In addition, the IC50 under setting [2] came out at 17 nM.

Take `Cc1cccc(Cc2ncc3c(n2)n(C)c(=O)n3C(=O)N2CCC2)c1` [compound 371]: the inhibition at 0.1 µM under setting [1] is 43%. Also, the IC50 under setting [2] was 149 nM.

For the molecule `Cn1c(=O)n(C(=O)N2CCC2)c2cnc(Cc3cccc(F)c3)nc21` [compound 372], the inhibition at 0.1 µM under setting [1] came out at 80%. For the same molecule, under setting [2], the IC50 was determined as 32 nM.

As for `Cn1c(=O)n(C(=O)N2CCC2)c2cnc(Cc3ccc(F)cc3)nc21` [compound 373], the inhibition at 0.1 µM under setting [1] worked out at 90%. Further, the IC50 under setting [2] amounted to 17 nM.

For `Cn1c(=O)n(C(=O)N2CCC2)c2cnc(Cc3ccccc3F)nc21` [compound 374], the inhibition at 0.1 µM under setting [1] was found to be 85%. The IC50 under setting [2] came out at 12 nM.

Consider `COc1ccc(Cc2ncc3c(n2)n(C)c(=O)n3C(=O)N2CCC2)cc1` [compound 376], for which the inhibition at 0.1 µM under setting [1] amounted to 89%. The IC50 under setting [2] amounted to 24 nM.

For `Cn1c(=O)n(C(=O)N2CCC2)c2cnc(Cc3ccccc3Cl)nc21` [compound 377], the inhibition at 0.1 µM under setting [1] stood at 82%. Also, under setting [2], the IC50 came out at 39 nM.

Turning to `Cn1c(=O)n(C(=O)N2CCC2)c2cnc(Cc3ccc(Cl)cc3)nc21` [compound 378], the inhibition at 0.1 µM under setting [1] stood at 80%. The IC50 under setting [2] is 31 nM.

As for `COCCc1ncc2c(n1)n(C)c(=O)n2C(=O)N1CC(c2ccccc2)C1` [compound 389], the inhibition at 0.1 µM under setting [1] was determined as 105%. Moreover, the IC50 under setting [2] is 9 nM.

Regarding `COCCc1ncc2c(n1)n(C)c(=O)n2C(=O)N1CC(c2ccc(F)cc2)C1` [compound 390], the inhibition at 0.1 µM under setting [1] was determined as 120%. Besides, under setting [2], the IC50 came to 1 nM.

For the molecule `COCCc1ncc2c(n1)n(C)c(=O)n2C(=O)N1CC(c2cccc(F)c2)C1` [compound 391], the inhibition at 0.1 µM under setting [1] was 105%. The IC50 under setting [2] came to 4 nM.

Consider `CCOc1ccc(C2CN(C(=O)n3c(=O)n(C)c4nc(CCOC)ncc43)C2)cc1` [compound 392], for which the inhibition at 0.1 µM under setting [1] was determined as 105%. Besides, the IC50 under setting [2] amounted to 11 nM.

As for `COCCc1ncc2c(n1)n(C)c(=O)n2C(=O)N1CC(c2cccc(C(F)(F)F)c2)C1` [compound 393], the inhibition at 0.1 µM under setting [1] amounted to 101%. The IC50 under setting [2] is 10 nM.

In the case of `Cn1c(=O)n(C(=O)N2CCC2)c2cnc(COc3ccccc3)nc21` [compound 403], the inhibition at 0.1 µM under setting [1] came to 93%. Also, the IC50 under setting [2] was 20 nM.

As to `Cn1c(=O)n(C(=O)N2CCC2)c2cnc(COc3cccc(F)c3)nc21` [compound 405], the inhibition at 0.1 µM was determined as 97%. The IC50 (FAAH Inhibition IC50, rat brain membrane preparations) came out at 98 nM.

For `Cn1c(=O)n(C(=O)N2CCC2)c2cnc(COc3ccc(Cl)cc3)nc21` [compound 406], the inhibition at 0.1 µM under setting [1] came out at 54%. The IC50 under setting [2] was found to be 100 nM.

As for `Cn1c(=O)n(C(=O)N2CCC2)c2cnc(COc3cccc(Cl)c3)nc21` [compound 407], under setting [1], the inhibition at 0.1 µM was determined as 70%. The half-inhibitory concentration (IC50) under setting [2] was 92 nM.

With `Cn1c(=O)n(C(=O)N2CCC2)c2cnc(COc3ccccc3F)nc21` [compound 408], the inhibition at 0.1 µM under setting [1] turned out to be 69%. Under setting [2], the IC50 is 99 nM.

Consider `Cn1c(=O)n(C(=O)N2CCC2)c2cnc(COc3ccccc3Cl)nc21` [compound 409], for which the inhibition at 0.1 µM under setting [1] worked out at 63%. Under setting [2], the IC50 is 96 nM.

Consider `Cn1c(=O)n(C(=O)N2CCC2)c2cnc(COc3cccc(C(F)(F)F)c3)nc21` [compound 410], for which the inhibition at 0.1 µM under setting [1] amounted to 55%. Under setting [2], the IC50 stood at 100 nM.

As to `Cc1cccc(OCc2ncc3c(n2)n(C)c(=O)n3C(=O)N2CCC2)c1` [compound 411], the inhibition at 0.1 µM under setting [1] stood at 45%. Besides, under setting [2], the IC50 worked out at 171 nM.

Consider `Cn1c(=O)n(C(=O)N2CCC2)c2cnc(COc3cccc(OC(F)(F)F)c3)nc21` [compound 412], for which the inhibition at 0.1 µM under setting [1] stood at 56%. Further, the IC50 under setting [2] was found to be 78 nM.

Turning to `COCc1ncc2c(n1)n(C)c(=O)n2C(=O)N1CC(c2ccccc2C)C1` [compound 442], the inhibition at 0.1 µM under setting [1] worked out at 54%. Further, the IC50 under setting [2] came out at 74 nM.

Turning to `COCc1ncc2c(n1)n(C)c(=O)n2C(=O)N1CC(c2cccc(C)c2)C1` [compound 444], under setting [1], the inhibition at 0.1 µM was 69%. Besides, under setting [2], the IC50 amounted to 62 nM.

`CCOc1ccc(C2CN(C(=O)n3c(=O)n(C)c4nc(COC)ncc43)C2)cc1` [compound 445]: the inhibition at 0.1 µM under setting [1] is 105%. In addition, the IC50 under setting [2] turned out to be 10 nM.

As for `COCc1ncc2c(n1)n(C)c(=O)n2C(=O)N1CC(c2ccc(Cl)cc2)C1` [compound 446], under setting [1], the inhibition at 0.1 µM is 101%. The IC50 under setting [2] came out at 6 nM.

For `COCc1ncc2c(n1)n(C)c(=O)n2C(=O)N1CC(c2cccc(Cl)c2)C1` [compound 447], under setting [1], the inhibition at 0.1 µM was 131%. For the same molecule, the IC50 under setting [2] was found to be 1 nM.

As for `COCc1ncc2c(n1)n(C)c(=O)n2C(=O)N1CC(c2ccc(C(F)(F)F)cc2)C1` [compound 448], the inhibition at 0.1 µM under setting [1] turned out to be 95%. Further, the IC50 under setting [2] was determined as 10 nM.

Take `COCc1ncc2c(n1)n(C)c(=O)n2C(=O)N1CC(c2cccc(OC(F)(F)F)c2)C1` [compound 449]: the inhibition at 0.1 µM under setting [1] was determined as 84%. Moreover, the IC50 under setting [2] is 28 nM.

Take `COCc1ncc2c(n1)n(C)c(=O)n2C(=O)N1CC(c2ccc(OC)cc2)C1` [compound 450]: the inhibition at 0.1 µM under setting [1] is 89%. Besides, the concentration for half-maximal inhibition (IC50) under setting [2] amounted to 20 nM.

On to `CCOc1cccc(C2CN(C(=O)n3c(=O)n(C)c4nc(COC)ncc43)C2)c1` [compound 451], for which, under setting [1], the inhibition at 0.1 µM worked out at 95%. The IC50 under setting [2] was 12 nM.

For the molecule `COCc1ncc2c(n1)n(C)c(=O)n2C(=O)N1CC(c2ccc(C)cc2)C1` [compound 452], the inhibition at 0.1 µM under setting [1] was found to be 74%. For the same molecule, the IC50 under setting [2] amounted to 39 nM.

Regarding `COCc1ncc2c(n1)n(C)c(=O)n2C(=O)N1CC(c2ccccc2OC)C1` [compound 457], the inhibition at 0.1 µM under setting [1] turned out to be 96%. The IC50 under setting [2] worked out at 10 nM.

For `CCOCc1ncc2c(n1)n(C)c(=O)n2C(=O)N1CC(c2ccc(F)cc2)C1` [compound 461], the inhibition at 0.1 µM under setting [1] is 107%. Moreover, the IC50 under setting [2] stood at 10 nM.

As to `CCCOCc1ncc2c(n1)n(C)c(=O)n2C(=O)N1CC(c2ccccc2)C1` [compound 467], the inhibition at 0.1 µM under setting [1] came out at 69%. Under setting [2], the IC50 was 52 nM.

Take `CCCOCc1ncc2c(n1)n(C)c(=O)n2C(=O)N1CC(c2ccc(F)cc2)C1` [compound 470]: the inhibition at 0.1 µM under setting [1] amounted to 103%. The IC50 under setting [2] was 2 nM.

Turning to `COCCOCc1ncc2c(n1)n(C)c(=O)n2C(=O)N1CC(c2cccc(F)c2)C1` [compound 473], the inhibition at 0.1 µM under setting [1] was found to be 113%. The IC50 under setting [2] worked out at 8 nM.

For `CN(C)C(=O)n1c(=O)n(C)c2cnc(CCc3cccc(OC(F)(F)F)c3)nc21` [compound 495], the inhibition at 0.1 µM under setting [1] stood at 100%. Besides, under setting [2], the IC50 was 10 nM.

The values above are taken from patent publication US8735406B2, “8-oxodihydropurine derivative” (Dainippon Sumitomo Pharma Co., Ltd., priority 2009, dated 2014).
